# According to patent publication US20230278972A1, “SUBSTITUTED HALOALKYL SULFONANILIDE HERBICIDES” (FMC Corporation, priority 2020, published 2023):
# How the values were obtained:
# Assay type in all cases: in vivo
# [1] = system: blackgrass (Alopecurus myosuroides); assay: Test A postemergence, blackgrass; conditions: Postemergence, 0 to 100 scale (0 no effect, 100 complete control); for Blackgrass plant response rating: 500 g ai/ha, visual injury vs untreated controls after approx. 10 days
# Procedure, shortened: (§1)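 Seeds are sown in loam mixed with sand and sprayed on the soil surface right after planting for the preemergence test. Postemergence pots are sprayed once seedlings reach 2 to 10 cm at the one- to two-leaf stage. The same surfactant-containing, non-phytotoxic solvent formulation serves both.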
# [2] = system: barnyardgrass (Echinochloa crus-galli); assay: Test A preemergence, barnyardgrass; conditions: Preemergence; for Barnyardgrass plant response rating: 125 g ai/ha, visual injury on 0 to 100 scale (0 no effect, 100 complete control), approximately 10 days; for Plant response rating, Barnyardgrass: 0 to 100 scale (0 no effect, 100 complete control)
# Procedure, shortened: as §1
# [3] = system: Foxtail, Giant (giant foxtail, Setaria faberi); assay: Test A preemergence, Foxtail, Giant; conditions: Preemergence; for Foxtail, Giant plant response rating: 125 g ai/ha, visual injury on 0 to 100 scale (0 no effect, 100 complete control), approximately 10 days; for Plant response rating, Foxtail, Giant: 0 to 100 scale (0 no effect, 100 complete control)
# Procedure, shortened: as §1
# [4] = system: Ryegrass, Italian (Italian ryegrass, Lolium multiflorum); assay: Test A preemergence, Ryegrass, Italian; conditions: Preemergence; for Ryegrass, Italian plant response rating: 125 g ai/ha, visual injury on 0 to 100 scale (0 no effect, 100 complete control), approximately 10 days; for Plant response rating, Ryegrass, Italian: 0 to 100 scale (0 no effect, 100 complete control)
# Procedure, shortened: as §1
# [5] = system: pigweed (Amaranthus retroflexus); assay: Test A postemergence, pigweed; conditions: Postemergence, 0 to 100 scale (0 no effect, 100 complete control); for Pigweed plant response rating: 500 g ai/ha, visual injury vs untreated controls after approx. 10 days
# Procedure, shortened: as §1
# [6] = system: ragweed (common ragweed, Ambrosia artemisiifolia); assay: Test A postemergence, ragweed; conditions: Postemergence, 0 to 100 scale (0 no effect, 100 complete control); for Ragweed plant response rating: 500 g ai/ha, visual injury vs untreated controls after approx. 10 days
# Procedure, shortened: as §1
# [7] = system: Ryegrass, Italian (Italian ryegrass, Lolium multiflorum); assay: Test A postemergence, Ryegrass, Italian; conditions: Postemergence, 0 to 100 scale (0 no effect, 100 complete control); for Ryegrass, Italian plant response rating: 500 g ai/ha, visual injury vs untreated controls after approx. 10 days
# Procedure, shortened: as §1
# [8] = system: wheat (Triticum aestivum); assay: Test A postemergence, wheat; conditions: Postemergence, 0 to 100 scale (0 no effect, 100 complete control); for Wheat plant response rating: 500 g ai/ha, visual injury vs untreated controls after approx. 10 days
# Procedure, shortened: (§2)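 Barnyardgrass, wheat and galium were treated postemergence at the one- to two-leaf stage (2 to 10 cm) with chemicals formulated in non-phytotoxic solvent plus surfactant, grown in loam soil–sand pots. Pigweed was sown in the same blend and given a preemergence directed soil spray.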
# [9] = system: Foxtail, Giant (giant foxtail, Setaria faberi); assay: Test A postemergence, Foxtail, Giant; conditions: Postemergence, 0 to 100 scale (0 no effect, 100 complete control); for Foxtail, Giant plant response rating: 500 g ai/ha, visual injury vs untreated controls after approx. 10 days
# Procedure, shortened: as §1
# [10] = system: corn (Zea mays); assay: Test A postemergence, corn; conditions: Postemergence, 0 to 100 scale (0 no effect, 100 complete control); for Corn plant response rating: 500 g ai/ha, visual injury vs untreated controls after approx. 10 days
# Procedure, shortened: as §1
# [11] = system: kochia (Bassia scoparia); assay: Test A preemergence, kochia; conditions: Preemergence; for Kochia plant response rating: 125 g ai/ha, visual injury on 0 to 100 scale (0 no effect, 100 complete control), approximately 10 days; for Plant response rating, Kochia: 0 to 100 scale (0 no effect, 100 complete control)
# Procedure, shortened: as §1
# [12] = system: ragweed (common ragweed, Ambrosia artemisiifolia); assay: Test A preemergence, ragweed; conditions: Preemergence; for Ragweed plant response rating: 125 g ai/ha, visual injury on 0 to 100 scale (0 no effect, 100 complete control), approximately 10 days; for Plant response rating, Ragweed: 0 to 100 scale (0 no effect, 100 complete control)
# Procedure, shortened: as §1
# [13] = system: galium (catchweed bedstraw, Galium aparine); assay: Test A postemergence, galium; conditions: Postemergence, 0 to 100 scale (0 no effect, 100 complete control); for Galium plant response rating: 500 g ai/ha, visual injury vs untreated controls after approx. 10 days
# Procedure, shortened: as §2
# [14] = system: kochia (Bassia scoparia); assay: Test A postemergence, kochia; conditions: Postemergence, 0 to 100 scale (0 no effect, 100 complete control); for Kochia plant response rating: 500 g ai/ha, visual injury vs untreated controls after approx. 10 days
# Procedure, shortened: as §1
# [15] = system: barnyardgrass (Echinochloa crus-galli); assay: Test A postemergence, barnyardgrass; conditions: Postemergence, 0 to 100 scale (0 no effect, 100 complete control); for Barnyardgrass plant response rating: 500 g ai/ha, visual injury vs untreated controls after approx. 10 days
# Procedure, shortened: as §2
# [16] = system: pigweed (Amaranthus retroflexus); assay: Test A preemergence, pigweed; conditions: for Pigweed plant response rating: 125 g ai/ha, visual injury on 0 to 100 scale (0 no effect, 100 complete control), approximately 10 days; for Plant response rating, Pigweed: 0 to 100 scale (0 no effect, 100 complete control)
# Procedure, shortened: as §2
# [17] = 125 g ai/ha, visual injury approx. 10 days
# [18] = 31 g ai/ha, visual injury, approx. 10 days
Compound,"Plant response rating, Blackgrass [1, 17]",Blackgrass plant response rating [1],Barnyardgrass plant response rating [2],"Plant response rating, Barnyardgrass ([2]; 500 g ai/ha)","Foxtail, Giant plant response rating [3]","Plant response rating, Foxtail, Giant ([3]; 500 g ai/ha)","Ryegrass, Italian plant response rating [4]","Plant response rating, Ryegrass, Italian ([4]; 500 g ai/ha)","Plant response rating, Pigweed [5, 17]","Plant response rating, Ragweed [6, 17]","Plant response rating, Ryegrass, Italian [7, 17]","Plant response rating, Wheat [8, 17]","Plant response rating, Foxtail, Giant [9, 17]","Plant response rating, Corn [10, 17]",Kochia plant response rating [11],Ragweed plant response rating [12],"Plant response rating, Galium [13, 17]","Plant response rating, Kochia [14, 17]","Plant response rating, Barnyardgrass [15, 17]",Pigweed plant response rating [16],other results
Cc1cc(C#N)c(C(=O)N2CCCCC2)cc1NS(=O)(=O)C(F)(F)F [Compound 126],20,30,0,40,20,90,0,40,70,0,0,0,0,0,0,0,80,10,0,70,"Pigweed plant response rating [5]: 90; Ragweed plant response rating [6]: 30; Ryegrass, Italian plant response rating [7]: 0; Wheat plant response rating [8]: 0; Foxtail, Giant plant response rating [9]: 0; Corn plant response rating [10]: 20; Plant response rating, Kochia ([11]; 500 g ai/ha): 30; Plant response rating, Ragweed ([12]; 500 g ai/ha): 30; Galium plant response rating [13]: 90; Kochia plant response rating [14]: 30; Barnyardgrass plant response rating [15]: 0; Plant response rating, Pigweed ([16]; 500 g ai/ha): 100"
Cc1cc(C)c(C2=NOC3CCCCC23)cc1NS(=O)(=O)C(F)(F)F (stereo not drawn) [Compound 123],20,50,100,100,100,100,90,100,60,50,50,50,30,10,40,50,80,50,90,90,"Pigweed plant response rating [5]: 80; Ragweed plant response rating [6]: 70; Ryegrass, Italian plant response rating [7]: 50; Wheat plant response rating [8]: 60; Foxtail, Giant plant response rating [9]: 80; Corn plant response rating [10]: 70; Plant response rating, Kochia ([11]; 500 g ai/ha): 80; Plant response rating, Ragweed ([12]; 500 g ai/ha): 80; Galium plant response rating [13]: 90; Kochia plant response rating [14]: 70; Barnyardgrass plant response rating [15]: 90; Plant response rating, Pigweed ([16]; 500 g ai/ha): 100"
CO[C@@H]1CCCN(C(=O)c2cc(N(S(=O)(=O)C(F)(F)F)S(=O)(=O)C(F)(F)F)c(C)cc2C)C1 [Compound 95],0,,80,,100,,90,,80,0,0,10,0,20,10,60,80,30,30,90,"Plant response rating, Blackgrass ([1]; 31 g ai/ha): 0; Plant response rating, Barnyardgrass [2, 18]: 10; Plant response rating, Foxtail, Giant [3, 18]: 90; Plant response rating, Ryegrass, Italian [4, 18]: 20; Plant response rating, Pigweed ([5]; 31 g ai/ha): 40; Plant response rating, Ragweed ([6]; 31 g ai/ha): 0; Plant response rating, Ryegrass, Italian ([7]; 31 g ai/ha): 0; Plant response rating, Wheat ([8]; 31 g ai/ha): 0; Plant response rating, Foxtail, Giant ([9]; 31 g ai/ha): 0; Plant response rating, Corn ([10]; 31 g ai/ha): 0; Plant response rating, Kochia [11, 18]: 0; Plant response rating, Ragweed [12, 18]: 0; Plant response rating, Galium ([13]; 31 g ai/ha): 40; Plant response rating, Kochia ([14]; 31 g ai/ha): 10; Plant response rating, Barnyardgrass ([15]; 31 g ai/ha): 0; Plant response rating, Pigweed [16, 18]: 70"
